Measurements taken from patent publication US6652865B2, “Method and formulation for decreasing statin metabolism” (Gattefosse Holding, priority 2001, dated 2003).

System: human intestinal microsomes
Assay: Reduction in the intestinal barrier effect: simvastatin remaining after incubation with human intestinal microsomes
Conditions: 12 μmol, 1 mg/ml microsomes, 37° C.
Protocol: The test is carried out in vitro using human intestinal microsomes containing:
0.09 nmol/mg of cytochromes P450,
0.77 nmol/min/mg of cytochromes P450 3 A 4.
1 mg/ml of microsomes is then placed in contact:
with a regenerating system having the following composition:
followed by equilibration at 37° C. for 3 minutes.
100 μl aliquots are mixed with a solution of 400 μl of a 50/50 mixture of ice and acetonitrile at 0, 15, 30, 60, 120 and 180 minutes. Testosterone is tested in parallel as control component.
The conditions for carrying out the HPLC are as follows:
The mass spectrometer used is known under the reference PE SCIEX 150.

C[C@]12CC[C@H]3[C@@H](CCC4=CC(=O)CC[C@@]43C)[C@@H]1CC[C@@H]2O [TESTOSTERONE, Testosterone]
PERCENTAGE REMAINING (time 0 min): 100% | PERCENTAGE REMAINING (time 15 min): completely disappeared | PERCENTAGE REMAINING (time 180 min): 0%
